Test results from patent US20200190592A1, “PME-1 AS A BIOMARKER TO PREDICT AND DIAGNOSE AN INCREASED RISK OF ENDOMETRIAL CANCER AND GENE SILENCING OF PME-1 TO INHIBIT EPITHELIAL TO MESENCHYMAL TRANSITION” (Medical Diagnostic Laboratories, L.L.C., priority 2018, published 2020).

Tests used:
phospho-Akt = test: Western analysis of Akt phosphorylation in RL95-2 cells; format: cell-based, human; settings: PME-1 knocked down
Experimental: We observed a similar trend for the Akt signaling pathway. There was an increase in phosphorylation of Akt on threonine 308 (T308) when PME-1 was over-expressed compared to control. There was a decrease in phosphorylation of Akt when PME-1 was knocked down (FIG. 18B). PME-1 over-expression specifically increases the phosphorylation of Akt on T308, but not serine 473 (S473). Importantly, when cells were incubated with upstream inhibitors of Akt phosphorylation (LY294002), there was a decrease in the phospho-forms (FIGS. 18A and 18B), as expected.
15 μg of protein was used for western analysis. PME-1 antibody (Santa Cruz) and COXIV (Cell Signaling Technologies) were used for detection of proteins and the blots were developed using chemiluminescence (Pierce ECL Western Blotting Substrate—Thermo Scientific) on the GE ImageQuant LAS 4000. For analysis of Akt, ERK, and β-catenin signaling in tissue culture, western analyses were completed as follows. RL95-2 cells stably infected with lentivirus expressing constructs were selected with puromycin (Invivogen). The cells were incubated with either 50 μM Akt inhibitor (LY 294002, Cell Signaling Technologies) or 40 μM ERK inhibitor (V0126, Cell Signaling Technologies) for 1-2 hours at 37° C. 1.5× Laemelli buffer (0.5 M Tris pH6.8, […], 10% sodium dodecyl sulfate, 100 mM EDTA) was used to prepare cell lysates. […]

PPME1 = test: qRT-PCR of PPME1 (PME-1) expression in RL95-2 cells; format: cell-based, human; settings: RL95-2, normalized to 18S, vs shSCR
Experimental: In this study, we transfected RL95-2 cells to express empty vector (Control), over-expressing PME-1 (+PME-1) or expressing shRNA against PME-1 (−PME-1) followed by serum starvation for 24 hours. Afterwards, either vehicle or TGF-β treatment was performed at the end of the 24 hours. TGF-β was used to induce cells to initiate the EMT program. Gene expression analysis was conducted using quantitative real-time PCR.
Using RL95-2 endometrial cancer cells, we overexpressed PME-1 (FIG. 21A) or depleted PME-1 with shRNA (FIG. 21B) and confirmed that PME-1 was appropriately expressed.
Total RNA was extracted with Qiagen RNAEasy kit from RL95-2 cells. cDNA was synthesized using 500 ng-1 μg of RNA and SuperScript VILO c-DNA mix (Life Technologies). Taqman probes and PCR-mix were purchased from Life Technologies. All samples were run in triplicates. Results are representative of three independent experiments in which genes of interest were normalized to the house-keeping gene, 18S or GAPDH, where fold-change was calculated using the ddCt method.

In the case of “shPPME1 no. 2: shRNA targeting PPME1, SEQ ID NO: 2: GCAGCGATTATTAGTAGAGTT, bp 289-309; used for all subsequent experiments (guide GCAGCGATTATTAGTAGAGTT; listed as Homo sapiens)”, the “phosphorylation of Akt” value (phospho-Akt) is reported as “decrease” and the PME-1 knocked down (PPME1) is reported as > 50%.
